Source: patent US7829500B2, “Plant-activating agent” (Kao Corporation, priority 2000, dated 2010)

What follows are compounds tested on Chlorella cells (assay: Test of reproductive ability using chlorella cells). Conditions: Table 1; relative number of chlorella cells after 14 days, non-treated area = 100; LS medium; concentration (ppm) as in table.
Assay type: cell-based
Procedure: Chlorella cells which were green cells of a […] were cultured with vibration in an inorganic salt medium. […] The concentration of the cells was set to 1.00×10^5 (cells per ml) at the start of the test. […] As the inorganic salt medium, a Linsmaier-Skoog (LS) medium was used. Three media were used as the treated areas and the non-treated areas every the plant-activating agent or the plant-activating composition. The average thereof was compared with that in the non-treated areas.
Work on `CC(O)C(=O)O` (stereo not drawn) [Comparative product 1-1, Lactic acid, reference compound] yielded a reproductive ability of 99. “Citric acid C12 monoamide [Inventive product 1-8]” was tested, and the reproductive ability was 128. With “Citric acid C14 monoamide [Inventive product 1-6]” the reproductive ability was 136. “Citric acid C18 diester [Inventive product 1-7]” was tested, and the reproductive ability was 138. “Citric acid C18 monoamide [Inventive product 1-5]” gave a reproductive ability of 139. In the case of “Citric acid C18 monoester [Inventive product 1-1]”, the reproductive ability is reported as 142. For “Citric acid C18 monoester potassium salt [Inventive product 1-3]”, the reproductive ability was 138.

Same assay, conditions: Table A1; relative number of chlorella cells after 14 days, non-treated area = 100
With `CC(=O)O` [Comparative product A1-1, Acetic acid, reference compound] the reproductive ability was 90. `CCC(=O)O` [Comparative product A1-3, Propionic acid, reference compound] gave a reproductive ability of 94. In the case of `CC(O)C(=O)O` (stereo not drawn) [Comparative product A1-4, Lactic acid, reference compound], the reproductive ability is reported as 93. For `CCCCCCCCCCCCCC(=O)O` [Inventive product A1-1, Myristic acid (LUNAC MY-98)], the reproductive ability was 127. `CCCCCCCC/C=C\CCCCCCCC(=O)O` [Inventive product A1-5, Oleic acid] was tested, and the reproductive ability was 148. `CCCCCCCCCCCCCCCCCCCCCC(=O)O` [Inventive product A1-6, Behenic acid (LUNAC BA)] showed a reproductive ability of 150. `CCCCCCCCCCCCCCCCCCCCCCCCCCCCCC(=O)O` [Inventive product A1-7, Melissic acid] was tested, and the reproductive ability was 138.

Same assay, conditions: Table B1; relative number of chlorella cells after 14 days, non-treated area = 100
For `OCC(O)CO` [Comparative product B1-1, Glycerol, reference compound], the reproductive ability was 98. `CCCCCCCCCCCCCCCCCCOCC(O)CO` (stereo not drawn) [Inventive product B1-4, Batyl alcohol] showed a reproductive ability of 130. `CCCCCCCCCCCCCCCCCCOC(=O)C(O)CO` (stereo not drawn) [Inventive product B1-6, Glyceric acid stearyl ester] was tested, and the reproductive ability was 122. Compound `CCCCCCCCCCCCCCCCNC(=O)C(O)CO` (stereo not drawn) [Inventive product B1-7, Glyceric acid cetyl amide] has a reproductive ability of 120. `O=C1OCC(CO)O1` (stereo not drawn) [Inventive product B1-9, Glycerol carbonate] was tested, and the reproductive ability was 126. “Hexaglycerol ester of stearic acid [Inventive product B1-8]” was tested, and the reproductive ability was 123. “Stearic acid monoglyceride [Inventive product B1-3]” showed a reproductive ability of 132.
